According to patent publication US8889131B2, “NOTCH inhibition in the treatment and prevention of a metabolic disease or disorder and cardiovascular complications thereof” (The Brigham and Women's Hospital, Inc., priority 2009, dated 2014):

Columns and labels:
Type in all cases: cell-based, mouse
[1] = tested on: Dll4-mediated Notch signaling; assay: MCP-1 expression in differentiated 3T3-L1 adipocytes
Procedure: 3T3-L1 preadipocytes (American Type Culture Collection) were maintained in Dulbecco's modified Eagle's medium (DMEM) (Gibco) containing 10% FBS. Differentiation of 3T3-L1 preadipocytes to mature adipocytes was performed as previously described and used as differentiated 3T3-L1 adipocytes at day 10 after the induction of differentiation. Differentiation was initiated two days after cells were confluent by adding fresh medium containing 0.5 mM isobutylmethylxanthine, 1 μM dexamethasone, and 10 μg/ml insulin. After two days, the methylisobutylxanthine and dexamethasone were removed and insulin was maintained for two additional days. On day 4 and thereafter, DMEM containing only 10% FBS was replaced every two days. […]
Applicants transfected siRNA against mouse Dll4 (Dharmacon), plasmid encoding mouse Dll4 (GeneCopoeia), RBP-Jκ reporter (SABiosciences), and Notch3 intracellular domains (N3ICD) to 3T3-L1 adipocytes by electroporation (Nucleofector system; Amaxa) according to the manufacturer's instructions. […] Luciferase activity was determined using a Dual-Luciferase Reporter Assay System (Promega). […]
(§1) Applicants synthesized cDNA from total RNA extracted from tissues and cells. Real-time quantitative RT-PCR was done with a MyiQ single-color real-time PCR detection system (BioRad) and PerfeCTa SYBR Green SuperMix for iQ (Quanta Biosciences). […]

[2] = tested on: Dll4-mediated Notch signaling; assay: M1/M2 gene expression in RAW264.7 cells
Procedure: RAW264.7 cells (American Type Culture Collection) were also maintained in DMEM containing 10% FBS. For blockade of Dll4-mediated Notch signaling, Applicants pre-treated RAW264.7 cells with Dll4 Ab or IgG for 2 hours and then stimulated these cells with 1 ng/ml LPS for 24 hours. LPS stimulation activates the Notch signaling in RAW264.7 cells.
Applicants transfected siRNA against mouse Dll4 (Dharmacon), plasmid encoding mouse Dll4 (GeneCopoeia), RBP-Jκ reporter (SABiosciences), and Notch3 intracellular domains (N3ICD) to 3T3-L1 adipocytes by electroporation (Nucleofector system; Amaxa) according to the manufacturer's instructions. The Dll4-expressing plasmid was also transfected to RAW264.7 cells. N3ICD was a generous gift from Dr. Shigeru Chiba (Department of Clinical and Experimental Hematology, Graduate School of Comprehensive Human Sciences, University of Tsukuba). Applicants transfected 2 μg of siRNA or plasmid to cells and harvested them 48 hours or 24 hours after transfection, respectively. […] Luciferase activity was determined using a Dual-Luciferase Reporter Assay System (Promega). […]
as §1

RBP-Jκ reporter = RBP-Jκ reporter luciferase assay in 3T3-L1 adipocytes; conditions: 3T3-L1 adipocytes on rDll4-coated plates
Source text: Applicants transfected siRNA against mouse Dll4 (Dharmacon), plasmid encoding mouse Dll4 (GeneCopoeia), RBP-Jκ reporter (SABiosciences), and Notch3 intracellular domains (N3ICD) to 3T3-L1 adipocytes by electroporation (Nucleofector system; Amaxa) according to the manufacturer's instructions. The Dll4-expressing plasmid was also transfected to RAW264.7 cells. N3ICD was a generous gift from Dr. Shigeru Chiba (Department of Clinical and Experimental Hematology, Graduate School of Comprehensive Human Sciences, University of Tsukuba). Applicants transfected 2 μg of siRNA or plasmid to cells and harvested them 48 hours or 24 hours after transfection, respectively. Applicants used 5 μl of RBP-Jκ reporter solution for each transfection. After incubation for 24 hours, cells were seeded to rDll4-coated plates and used for the luciferase assay after 48-hour incubation. Luciferase activity was determined using a Dual-Luciferase Reporter Assay System (Promega). Applicants transfected 5 μg of N3ICD to cells and harvested them 24 hours after transfection.

NF-κB pathway = assay: NF-κB activation in 3T3-L1 adipocytes (immunoblotting, immunocytochemistry)
Procedure: Differentiated 3T3-L1 adipocytes were starved for 16 hours and then used for in vitro experiments. For blockade Dll4-mediated Notch signaling, Applicants treated 3T3-L1 adipocytes with Dll4 Ab or IgG (10 μg/ml) and γ-secretase inhibitor (DAPT, 10 μM) or DMSO for 24 hours. To activate Dll4-mediated Notch signaling, Applicants seeded 3T3-L1 adipocytes to plates coated with recombinant mouse Dll4 (rDll4) (1 μg/ml), and then harvested cells after 48-hour incubation (Williams, et al., Blood 107:931-939 (2006)). Applicants also used SN50 (25 μg/ml) NF-κB inhibitor to determine the interaction between Notch signaling and the NF-κB pathway.
Differentiated 3T3-L1 adipocytes incubated in rDll4-coated plates were fixed in 4% paraformaldehyde and permeabilized with 0.1% NP40. After blocking with 1% goat serum, cells were incubated with a rabbit anti-p65 antibody (Santa Cruz Biotechnology), followed by an Alexa Fluor 594-conjugated donkey anti-rabbit Ig antibody (Molecular Probes). Nuclei were counterstained with Hoechst 33342 (Sigma). Cells were observed under an ECLIPSE TE2000-U (Nikon) equipped with a mercury illumination system and SPOT RT Camera (Diagnostic Instruments, Inc.).
Lysates prepared from tissues and cells in lysis buffer containing protease inhibitor cocktail (Sigma) and phosphatase inhibitor cocktail (Roche) were separated with SDS-PAGE gels. Applicants used the following antibodies: NF-κB p65 (Santa Cruz Biotechnology), phospho-NF-κB p65 (Rock Land), IK-Bα (Cell Signaling), and β-actin (Sigma).

Row | Compound | MCP-1 RNA expression ([1]; differentiated 3T3-L1 adipocytes, blockade of Notch signaling) | anti-inflammatory M2 genes (e.g., IL-10) [2] | expression of pro-inflammatory M1 genes such as IL-1β and iNOS [2] | MCP-1 expression ([1]; 3T3-L1 adipocytes cultured on rDll4-coated dishes) | RBP-Jκ reporter activity (RBP-Jκ reporter) | degradation of IκBα (NF-κB pathway) | nuclear translocation of p65 (NF-κB pathway) | phosphorylation of NF-κB subunit p65 (NF-κB pathway)
1 | C[C@H](NC(=O)Cc1cc(F)cc(F)c1)C(=O)N[C@H](C(=O)OC(C)(C)C)c1ccccc1 [DAPT] | produced a similar effect |  |  |  |  |  |  | 
2 | rDll4: recombinant mouse Dll4 coated on plates to activate Dll4-mediated Notch signaling |  | suppressed | induced expression | promoted | Stimulation | increased | increased | increased
